Measured values from patent US20250195553A1, “Use of Genipin-1-B-D-Gentiobioside in Preparation of Drug” (Guizhou Bailing Group Pharmaceutical Co., Ltd., priority 2023, published 2025).
Where “and” joins values, the source holds several entries; their conditions need not be identical. Identical values can stand only once. Like-named read-outs stand apart in the source and are kept apart here.

Experiments:
[1] = system: Human Coronavirus OC43 (HCoV-OC43); format: in vivo; conditions: OC43
[2] = system: Human Coronavirus OC43 (HCoV-OC43); format: in vivo; conditions: 4 days
[3] = system: Human Respiratory Syncytial Virus (RSV); assay: RSV viral load in mouse lung tissue (RT-PCR), nebulization; format: in vivo
Description: […] Each group consisted of 10 mice, with an equal number of males and females. Except for the normal control group, all mice were lightly anesthetized with isoflurane and infected with respiratory syncytial virus (RSV) via intranasal administration, with each mouse receiving 35 μl of the virus. On the day of infection, the treatment groups began inhalation administration. Each group received nebulization for 25 minutes once daily for four consecutive days. The normal control group and the model control group received nebulized saline under the same conditions. On the fifth day, after weighing, the mice were sacrificed by cervical dislocation, and their lung tissues were dissected, weighed, and used to calculate the lung index and lung index inhibition rate. The lung tissues were also retained for virus load, pathological examination, and inflammatory factor detection. The results were statistically analyzed using the t-test for intergroup comparisons.
After dissecting the mice, the lung tissues were collected and stored in separate containers at −80° C. in a low-temperature freezer. The lung tissues were then removed from the −80° C. freezer and placed in a clean mortar. A small amount of liquid nitrogen was poured into the mortar, and the tissues were ground into powder using a pestle. The powder was collected in a 1.5 ml centrifuge tube, and 1 ml of TRIzol Reagent was immediately added. The tube was gently tapped at the bottom to mix the sample and ensure it was resuspended as soon as possible. The centrifuge tube was then placed horizontally at room temperature and incubated for 20 minutes. Next, it was centrifuged at 4° C. and 12,000 rpm for 10 minutes. The clear supernatant was transferred to a new 1.5 ml centrifuge tube, and 0.2 ml of chloroform was added. The tube was tightly capped, vigorously shaken for 15 seconds, and then incubated at room temperature for 2-3 minutes until the liquid separated into layers. After centrifuging at 4° C. and 12,000 rpm for 15 minutes, the transparent supernatant was carefully transferred to a new 1.5 ml centrifuge tube. Then, 0.5 ml of isopropanol was added, mixed well, and incubated at room temperature for 30 minutes. Following centrifugation at 4° C. and 12,000 rpm for 10 minutes, the supernatant was discarded. The precipitate was gently washed with 1 ml of 75% ethanol (to allow the white precipitate to float slightly), and then centrifuged at 4° C. and 7,500 rpm for 5 minutes. The supernatant was completely aspirated, and the RNA precipitate was briefly dried for 5-10 minutes. The precipitate was then dissolved in 20 μl of DEPC (Diethylpyrocarbonate)-treated water and stored in a −80° C. low-temperature freezer.
Treatment of Control Nucleic Acid: DEPC-H2O was used as a negative control. For the positive control, a series of four concentrations were prepared by gradient dilution at 10^7, 10^6, 10^5, and 10^4 copies/ml.
Reagent Preparation: Mix n×18 μl of RSV nucleic acid fluorescent PCR detection mixture, n×1 μl of internal control, and n×1 μl of RT-PCR enzyme (where n is the number of reaction tubes). Shake vigorously for a few seconds and centrifuge at 3000 rpm for a few seconds.
Sample Addition: Dispense 20 μl of the above mixture into each PCR tube. Then, add 5 μl of sample nucleic acid extract, DEPC-H2O, and positive control to the respective PCR tubes. Tightly close the tube caps, centrifuge for a few seconds to ensure all liquids are at the bottom, and immediately proceed with PCR amplification.
PCR Amplification: Place the reaction tubes in a quantitative fluorescent PCR instrument. Set the cycling parameters as follows: 45° C. for 10 minutes; 95° C. for 15 minutes; then 40 cycles of 95° C. for 15 seconds→60° C. for 60 seconds. Single-point fluorescent detection is performed at 60° C., with a reaction volume of 25 μl.
Fluorescent Channel Selection: Select the FAM and HEX/VIC/JOE channels for detection. […]

[4] = system: Mycoplasma Pneumoniae (MP); assay: Mycoplasma pneumoniae-infected mouse pneumonia model: lung index; format: in vivo, BALB/C mice; parameters: First Batch Inhibition Rate: unit not given here; conditions: 4 days
[5] = 37.5 mg/ml nebulization 25 min once daily 4 days
[6] = 75 mg/ml nebulization 25 min once daily 4 days

**Q.** How did the “Inhibition Rate (lung index)” value ([1]; 37.5 mg/kg/d i.v. 4 days) turn out when COC(=O)C1=CO[C@@H](O[C@@H]2O[C@H](CO[C@@H]3O[C@H](CO)[C@@H](O)[C@H](O)[C@H]3O)[C@@H](O)[C@H](O)[C@H]2O)[C@@H]2C(CO)=CC[C@H]12 [Genipin-1-β-D-gentiobioside] was run?
**A.** The value was 41.59%.

**Q.** And the “Lung Index” value ([1]; 37.5 mg/kg/d i.v. 4 days)?
**A.** The value was 0.80 ± 0.08 g lung weight × 100 g/body weight.

**Q.** And the “Inhibition Rate (lung index)” value ([1]; 75 mg/kg/d i.v. 4 days)?
**A.** The value was 42.34%.

**Q.** And the “Lung Index” value ([1]; 75 mg/kg/d i.v. 4 days)?
**A.** The value was 0.80 ± 0.05 g lung weight × 100 g/body weight.

**Q.** What about the “Inhibition Rate (lung index)” value ([1]; 150 mg/kg/d i.v. 4 days) of the same molecule?
**A.** Its value is 39.93%.

**Q.** What about the “Lung Index” value ([1]; 150 mg/kg/d i.v. 4 days) of the same molecule?
**A.** The value was 0.80 ± 0.07 g lung weight × 100 g/body weight.

**Q.** And the “Inhibition Rate (lung index)” value ([2]; 9.375 mg/ml inhalation 25 min)?
**A.** The value was 49.42%.

**Q.** And the “Lung Index” value ([2]; 9.375 mg/ml inhalation 25 min)?
**A.** The value was 0.79 ± 0.09 g lung weight × 100 g/body weight.

**Q.** What about the “Inhibition Rate (lung index)” value ([2]; 18.75 mg/ml inhalation 25 min) of the same molecule?
**A.** The value was 75.73%.

**Q.** And the “Lung Index” value ([2]; 18.75 mg/ml inhalation 25 min)?
**A.** The value was 0.76 ± 0.04 g lung weight × 100 g/body weight.

**Q.** And the “Inhibition Rate (lung index)” value ([2]; 37.5 mg/ml inhalation 25 min)?
**A.** The value was 90.30%.

**Q.** And the “Lung Index” value ([2]; 37.5 mg/ml inhalation 25 min)?
**A.** Its value is 0.74 ± 0.08 g lung weight × 100 g/body weight.

**Q.** And the “Inhibition Rate (lung index)” value ([2]; 75 mg/ml inhalation 25 min)?
**A.** The value was 102.88%.

**Q.** And the “Lung Index” value ([2]; 75 mg/ml inhalation 25 min)?
**A.** Its value is 0.72 ± 0.05 g lung weight × 100 g/body weight.

**Q.** And the “Inhibition Rate (viral load)” value [3, 5]?
**A.** The value was 57.54% and 57.43%.

**Q.** And the “Viral Load in lung tissue” value [3, 5]?
**A.** The value was 22127.79 ± 30384.54 copies/ng.

**Q.** And the “Inhibition Rate (viral load)” value [3, 6]?
**A.** Its value is 56.08%.

**Q.** What about the “Viral Load in lung tissue” value [3, 6] of the same molecule?
**A.** Its value is 22745.57 ± 13287.06 copies/ng.

**Q.** And the “First Batch Inhibition Rate” value ([4]; 37.5 mg/ml inhalation 15 min)?
**A.** Its value is 73.01.

**Q.** What about the “First Batch Lung Index” value ([4]; 37.5 mg/ml inhalation 15 min) of the same molecule?
**A.** The value was 0.76 ± 0.09.

**Q.** And the “Second Batch Inhibition Rate” value ([4]; 37.5 mg/ml inhalation 15 min)?
**A.** The value was 56.34.

**Q.** And the “Second Batch Lung Index” value ([4]; 37.5 mg/ml inhalation 15 min)?
**A.** The value was 0.68 ± 0.08.

**Q.** What about the “First Batch Inhibition Rate” value ([4]; 75 mg/ml inhalation 15 min) of the same molecule?
**A.** The value was 93.06.

**Q.** And the “First Batch Lung Index” value ([4]; 75 mg/ml inhalation 15 min)?
**A.** Its value is 0.72 ± 0.05.

**Q.** What about the “Second Batch Inhibition Rate” value ([4]; 75 mg/ml inhalation 15 min) of the same molecule?
**A.** The value was 64.09.

**Q.** And the “Second Batch Lung Index” value ([4]; 75 mg/ml inhalation 15 min)?
**A.** The value was 0.67 ± 0.07.
